Common to all, as to experiment: relative viability (nuclei count vs DMSO), 5 days (fraction); higher = more cells survive
Compound in the assay “Sulindac + Olaparib”: CC1=C(CC(=O)O)c2cc(F)ccc2/C1=C\c1ccc([S+](C)[O-])cc1 [Sulindac] + O=C(c1cc(Cc2n[nH]c(=O)c3ccccc23)ccc1F)N1CCN(C(=O)C2CC2)CC1 [Olaparib] (partner 8 µM)
In a few lines: (§1)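 Medians of duplicate plates are given as relative viability. That measure is the nuclei count in treated wells divided by the count in vehicle wells. Counts were taken on 4× images of lung cancer cell lines in 1536-well plates, 5 days after pin-tool dosing the day after seeding with one drug alone or a fixed anchor-drug dose plus five library-drug doses (not always all listed) in √10 steps.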

Compound in assay [1]: CN[C@@H]1C[C@H]2O[C@@](C)([C@@H]1OC)n1c3ccccc3c3c4c(c5c6ccccc6n2c5c31)C(=O)NC4 [Staurosporine] + CC(=O)c1c(C)c2cnc(Nc3ccc(N4CCNCC4)cn3)nc2n(C2CCCC2)c1=O [Palbociclib] (partner 0.5 µM)
In a few lines: as §1

Compound in assay [2]: O=c1[nH]cc(F)c(=O)[nH]1 [5-Fluorouracil] + Nc1ncn([C@H]2C[C@H](O)[C@@H](CO)O2)c(=O)n1 [Decitabine] (partner 2 µM)
In a few lines:
as §1

Compound in assay [3]: CN[C@@H]1C[C@H]2O[C@@](C)([C@@H]1OC)n1c3ccccc3c3c4c(c5c6ccccc6n2c5c31)C(=O)NC4 [Staurosporine] + COc1cc2c(Oc3ccc(NC(=O)C4(C(=O)Nc5ccc(F)cc5)CC4)cc3F)ccnc2cc1OCCCN1CCOCC1 [Foretinib] (partner 0.25 µM)
In a few lines:
as §1

In the case of PC-14, the relative viability came out at 0.271 with Sulindac + Olaparib (first compound 0.08 µM); 0.321 in the assay with Sulindac + Olaparib (first compound 0.253 µM); 0.272 with Sulindac + Olaparib (first compound 0.8 µM); 0.209 in the assay with Sulindac + Olaparib (first compound 2.53 µM); 0.272 with Sulindac + Olaparib (first compound 8 µM); 0.174 in assay [1] (first compound 0.005 µM). The relative viability in assay [1] (first compound 0.01581 µM) is 0.077; in assay [1] (first compound 0.05 µM), 0.0379; in assay [1] (first compound 0.1581 µM) it was 0.0411; in assay [1] (first compound 0.5 µM), 0.0434; in assay [2] (first compound 0.02 µM) it was 0.265; in assay [2] (first compound 0.2 µM), 0.229. Besides, the relative viability in assay [2] (first compound 0.6325 µM) is 0.25; in assay [2] (first compound 2 µM), 0.275; in assay [3] (first compound 0.005 µM) it was 0.929; in assay [3] (first compound 0.01581 µM) it was 0.718; in assay [3] (first compound 0.05 µM), 0.38; in assay [3] (first compound 0.1581 µM) it was 0.102. Besides, the relative viability in assay [3] (first compound 0.5 µM) was 0.0787.
Regarding RERF-LC-KJ, the relative viability with Sulindac + Olaparib (first compound 0.08 µM) worked out at 0.949; in the assay with Sulindac + Olaparib (first compound 0.253 µM) it was 1.01; with Sulindac + Olaparib (first compound 0.8 µM), 0.971; with Sulindac + Olaparib (first compound 2.53 µM) it was 0.861; in the assay with Sulindac + Olaparib (first compound 8 µM), 1.07; in assay [1] (first compound 0.005 µM), 0.914. In addition, the relative viability in assay [1] (first compound 0.01581 µM) worked out at 0.916; in assay [1] (first compound 0.05 µM), 0.475; in assay [1] (first compound 0.1581 µM), 0.4; in assay [1] (first compound 0.5 µM), 0.26; in assay [2] (first compound 0.02 µM), 0.66; in assay [2] (first compound 0.2 µM), 0.762. Also, the relative viability amounted to 0.776 in assay [2] (first compound 0.6325 µM); 0.736 in assay [2] (first compound 2 µM); 0.876 in assay [3] (first compound 0.005 µM); 0.824 in assay [3] (first compound 0.01581 µM); 0.702 in assay [3] (first compound 0.05 µM); 0.491 in assay [3] (first compound 0.1581 µM). Further, in assay [3] (first compound 0.5 µM), the relative viability came out at 0.191.
Take SK-LU-1: the relative viability stood at 0.498 in the assay with Sulindac + Olaparib (first compound 0.08 µM); 0.525 with Sulindac + Olaparib (first compound 0.253 µM); 0.446 with Sulindac + Olaparib (first compound 0.8 µM); 0.407 with Sulindac + Olaparib (first compound 2.53 µM); 0.536 in the assay with Sulindac + Olaparib (first compound 8 µM); 0.326 in assay [1] (first compound 0.005 µM). The relative viability in assay [1] (first compound 0.01581 µM) came out at 0.186; in assay [1] (first compound 0.05 µM) it was 0.166; in assay [1] (first compound 0.1581 µM) it was 0.164; in assay [1] (first compound 0.5 µM), 0.161; in assay [2] (first compound 0.02 µM), 0.636; in assay [2] (first compound 0.2 µM) it was 0.692. For the same cell line, the relative viability came out at 0.592 in assay [2] (first compound 0.6325 µM); 0.548 in assay [2] (first compound 2 µM); 0.267 in assay [3] (first compound 0.005 µM); 0.192 in assay [3] (first compound 0.01581 µM); 0.119 in assay [3] (first compound 0.1581 µM); 0.132 in assay [3] (first compound 0.5 µM).
On to SK-MES-1, for which the relative viability is 0.733 in the assay with Sulindac + Olaparib (first compound 0.08 µM); 0.825 with Sulindac + Olaparib (first compound 0.253 µM); 0.56 in the assay with Sulindac + Olaparib (first compound 0.8 µM); 0.712 with Sulindac + Olaparib (first compound 2.53 µM); 0.772 in the assay with Sulindac + Olaparib (first compound 8 µM); 0.235 in assay [1] (first compound 0.005 µM). The relative viability in assay [1] (first compound 0.01581 µM) came out at 0.232; in assay [1] (first compound 0.05 µM) it was 0.193; in assay [1] (first compound 0.1581 µM) it was 0.163; in assay [1] (first compound 0.5 µM), 0.147; in assay [2] (first compound 0.02 µM), 0.339; in assay [2] (first compound 0.2 µM), 0.352. For the same cell line, the relative viability in assay [2] (first compound 0.6325 µM) was found to be 0.323; in assay [2] (first compound 2 µM) it was 0.294; in assay [3] (first compound 0.005 µM), 0.626; in assay [3] (first compound 0.01581 µM) it was 0.581; in assay [3] (first compound 0.05 µM), 0.293; in assay [3] (first compound 0.1581 µM), 0.333. In addition, the relative viability in assay [3] (first compound 0.5 µM) came to 0.142.
As for SW 900, the relative viability in the assay with Sulindac + Olaparib (first compound 0.08 µM) is 0.968; in the assay with Sulindac + Olaparib (first compound 0.253 µM) it was 0.965; with Sulindac + Olaparib (first compound 8 µM), 1.06; in assay [1] (first compound 0.005 µM), 0.376; in assay [1] (first compound 0.01581 µM), 0.359; in assay [1] (first compound 0.05 µM), 0.278. Besides, the relative viability in assay [1] (first compound 0.1581 µM) turned out to be 0.201; in assay [1] (first compound 0.5 µM) it was 0.18; in assay [2] (first compound 0.02 µM), 0.415; in assay [2] (first compound 0.2 µM), 0.362; in assay [2] (first compound 0.6325 µM) it was 0.407; in assay [2] (first compound 2 µM), 0.431. Also, the relative viability in assay [3] (first compound 0.005 µM) was 0.388; in assay [3] (first compound 0.01581 µM) it was 0.331; in assay [3] (first compound 0.05 µM) it was 0.406; in assay [3] (first compound 0.1581 µM), 0.22; in assay [3] (first compound 0.5 µM) it was 0.144.
For SW 1573, the relative viability with Sulindac + Olaparib (first compound 0.08 µM) is 0.52; in the assay with Sulindac + Olaparib (first compound 0.253 µM), 0.523; with Sulindac + Olaparib (first compound 0.8 µM) it was 0.528; with Sulindac + Olaparib (first compound 2.53 µM), 0.478; with Sulindac + Olaparib (first compound 8 µM) it was 0.551; in assay [1] (first compound 0.005 µM), 0.172. For the same cell line, the relative viability in assay [1] (first compound 0.01581 µM) turned out to be 0.113; in assay [1] (first compound 0.05 µM) it was 0.131; in assay [1] (first compound 0.1581 µM) it was 0.0619; in assay [1] (first compound 0.5 µM), 0.081; in assay [2] (first compound 0.02 µM) it was 0.619; in assay [2] (first compound 0.2 µM), 0.505. Besides, the relative viability stood at 0.53 in assay [2] (first compound 0.6325 µM); 0.502 in assay [2] (first compound 2 µM); 0.852 in assay [3] (first compound 0.005 µM); 0.943 in assay [3] (first compound 0.01581 µM); 0.203 in assay [3] (first compound 0.05 µM); 0.176 in assay [3] (first compound 0.1581 µM). The relative viability in assay [3] (first compound 0.5 µM) amounted to 0.104.

(Values after the supplement of paper PMC10307832.)
